From ChEMBL document CHEMBL4011620, “Design and Discovery of N-(2-Methyl-5'-morpholino-6'-((tetrahydro-2H-pyran-4-yl)oxy)-[3,3'-bipyridin]-5-yl)-3-(trifluoromethyl)benzamide (RAF709): A Potent, Selective, and Efficacious RAF Inhibitor Targeting RAS Mutant Cancers” (J Med Chem, 2017)
≈ marks a conversion by molar mass, not a printed value. Calls of active or inactive are those of the source. The calls are words filed in the database; no cut-off is given here.

Tests used:
[1] = Volume of distribution at steady state in rat at 3 mg/kg, iv or 10 mg/kg, po; type: ADME, organism-based; conditions: in vivo, read-out: Vdss
Calu-6 [2] = test: Antitumor activity against human Calu6 cells xenografted in nude mouse assessed as effect on tumor volume at 10 mg/kg/day, po administered for 15 days starting on day 12 post tumor implantation measured on day 27 relative to control; type: functional
[3] = Clearance in dog at 0.3 mg/kg, iv or 1 mg/kg, po; type: ADME, organism-based, Canis lupus familiaris; conditions: in vivo
[4] = Protein binding in rat plasma; type: ADME, cell-free; conditions: read-out: PPB (converted)
PC-3 = test: Antitumor activity against human PC3 cells xenografted in nude mouse assessed as reduction in tumor volume at 200 mg/kg/day, po dosed on day 12 continued until day 25 post implantation; type: functional, organism-based
Calu-6 [5] = test: Antiproliferative activity against human Calu6 cells harboring KRAS Q61K mutant assessed as reduction cell viability after 72 hrs by CellTiter-Glo assay; type: functional, cell-based; conditions: Calu-6, 72 h
[6] = Apparent permeability across basolateral to apical side in human Caco2 cells at pH 7.4 by LC/MS/MS analysis; conditions: Caco-2, pH 7.4
[7] = Clearance in mouse at 1 mg/kg, iv or 3 mg/kg, po; type: ADME, organism-based; conditions: in vivo
[8] = target: Platelet-derived growth factor receptor alpha (Homo sapiens) (UniProt P16234); test: Binding affinity to human PDGFRalpha (330 to 640 residues) expressed in mammalian expression system at 1 uM by kinome scan assay relative to control
[9] = Apparent permeability across apical to basolateral side in human Caco2 cells at pH 7.4 by LC/MS/MS analysis; conditions: Caco-2, pH 7.4
Mus musculus [10] = test: Time during which free plasma concentration exceeds cellular in vitro EC50 for CRAF-mediated ERK phosphorylation in mouse xenografted with human Calu6 cells at 200 mg/kg, po administered as single dose
[11] = AUC (infinity) in rat at 10 mg/kg, po; type: ADME, organism-based; design: dose 10 mg/kg, route oral, time infinity; conditions: in vivo
Mus musculus [12] = test: Toxicity in nude mouse xenografted with human PC3 cells assessed as body weight loss at 200 mg/kg/day, po administered from day 12 until day 25 post tumor implantation measured twice per week of compound dosing; type: organism-based; conditions: in vivo
[13] = test system: Serine/threonine-protein kinase B-raf (Homo sapiens), P15056 [V600E]; test: Binding affinity to human BRAF V600E mutant (429 to 741 residues) expressed in mammalian expression system at 1 uM by kinome scan assay relative to control
Calu-6 [14] = test: Antitumor activity against human Calu6 cells xenografted in nude mouse assessed as tumor regression at 200 mg/kg/day, po administered for 15 days starting on day 12 post tumor implantation measured on day 27 relative to control; type: functional
Mus musculus [15] = test: In vivo inhibition of ERK1/2 phosphorylation at Thr202/Tyr204 and Thr185/Tyr187 in mouse xenografted with human Calu6 cells at 200 mg/kg, po administered as single dose measured up to 24 hrs post dose; type: functional; conditions: Calu-6, po
[16] = target: Serine/threonine-protein kinase B-raf (Homo sapiens, UniProt P15056); test: Inhibition of full-length BRAF (unknown origin)
Plasma = test: Plasma concentration in mouse xenografted with human Calu6 cells at 10 mg/kg, po administered as single dose measured at 24 hrs post dose by LC-MS analysis; type: ADME, organism-based; conditions: in vivo, BLD = below limit of detection
[17] = Protein binding in dog plasma; type: ADME, cell-free, Canis lupus familiaris; conditions: read-out: PPB (converted)
[18] = Cmax in rat at 10 mg/kg, po; type: ADME, organism-based; design: dose 10 mg/kg, route oral; conditions: in vivo
[19] = target: T1, Discoidin domain-containing receptor 2 (Homo sapiens) (UniProt Q16832); test: Binding affinity to human DDR2 (555 to 855 residues) expressed in mammalian expression system at 1 uM by kinome scan assay relative to control
T1 sequence (whole entry): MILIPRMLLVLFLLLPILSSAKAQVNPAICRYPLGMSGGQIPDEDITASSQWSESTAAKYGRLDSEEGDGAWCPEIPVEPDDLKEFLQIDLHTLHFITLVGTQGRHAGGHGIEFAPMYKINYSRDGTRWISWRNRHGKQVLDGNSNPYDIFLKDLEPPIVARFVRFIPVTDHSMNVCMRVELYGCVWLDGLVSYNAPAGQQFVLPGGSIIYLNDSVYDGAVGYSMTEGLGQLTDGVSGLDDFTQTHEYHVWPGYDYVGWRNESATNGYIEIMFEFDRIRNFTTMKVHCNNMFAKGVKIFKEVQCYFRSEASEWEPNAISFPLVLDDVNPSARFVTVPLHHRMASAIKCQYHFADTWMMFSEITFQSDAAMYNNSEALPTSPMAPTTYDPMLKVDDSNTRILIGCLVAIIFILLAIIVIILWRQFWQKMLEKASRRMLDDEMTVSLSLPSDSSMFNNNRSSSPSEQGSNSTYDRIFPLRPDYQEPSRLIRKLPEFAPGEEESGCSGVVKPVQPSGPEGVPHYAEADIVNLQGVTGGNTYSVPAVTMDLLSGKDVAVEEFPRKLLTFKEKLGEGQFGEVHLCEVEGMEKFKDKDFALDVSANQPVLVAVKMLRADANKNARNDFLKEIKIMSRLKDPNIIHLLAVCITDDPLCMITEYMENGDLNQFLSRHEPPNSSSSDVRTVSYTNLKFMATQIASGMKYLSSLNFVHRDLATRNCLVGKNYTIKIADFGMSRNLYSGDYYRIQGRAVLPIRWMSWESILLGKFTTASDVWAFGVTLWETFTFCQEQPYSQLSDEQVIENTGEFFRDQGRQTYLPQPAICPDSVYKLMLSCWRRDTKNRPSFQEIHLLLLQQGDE

Mus musculus [20] = test: In vivo inhibition of ERK phosphorylation at Thr202/Tyr204 and Thr185/Tyr187 in po dosed mouse xenografted with human Calu6 cells administered as single dose measured after 1 to 24 hrs post dose; type: functional, organism-based
Mus musculus [21] = test: Toxicity in nude mouse xenografted with human PC3 cells assessed as mortality at 200 mg/kg/day, po administered from day 12 until day 25 post tumor implantation; type: organism-based; conditions: in vivo
[22] = AUC (infinity) in dog at 1 mg/kg, po; type: ADME, organism-based, Canis lupus familiaris; design: dose 1 mg/kg, time infinity, route oral; conditions: in vivo
[23] = Metabolic stability in dog plasma after 3 hrs; type: ADME, cell-free, Canis lupus familiaris; conditions: read-out: Stability
[24] = target: Tyrosine-protein kinase FRK (Homo sapiens) (UniProt P42685); test: Binding affinity to human FRK (215 to 503 residues) expressed in mammalian expression system at 1 uM by kinome scan assay relative to control
[25] = test system: RAF proto-oncogene serine/threonine-protein kinase (Homo sapiens), P04049 [Y340E,Y341E]
[26] = Cmax in dog at 1 mg/kg, po; type: ADME, organism-based, Canis lupus familiaris; design: dose 1 mg/kg, route oral; conditions: in vivo
[27] = Oral bioavailability in dog at 1 mg/kg; type: ADME, organism-based, Canis lupus familiaris; conditions: in vivo
[28] = Solubility of compound at pH 6.8 by shake-flask assay; conditions: buffer
Mus musculus [29] = test: In vivo inhibition of ERK1/2 phosphorylation at Thr202/Tyr204 and Thr185/Tyr187 in mouse xenografted with human Calu6 cells at 10 to 30 mg/kg, po administered as single dose measured at 24 hrs post dose; type: functional, organism-based
[30] = Cmax in mouse at 3 mg/kg, po; type: ADME, organism-based; design: dose 3 mg/kg, route oral; conditions: in vivo

Sequence of Serine/threonine-protein kinase B-raf (Homo sapiens), P15056 [V600E] (P15056 whole entry V600E, the tested form may be a part): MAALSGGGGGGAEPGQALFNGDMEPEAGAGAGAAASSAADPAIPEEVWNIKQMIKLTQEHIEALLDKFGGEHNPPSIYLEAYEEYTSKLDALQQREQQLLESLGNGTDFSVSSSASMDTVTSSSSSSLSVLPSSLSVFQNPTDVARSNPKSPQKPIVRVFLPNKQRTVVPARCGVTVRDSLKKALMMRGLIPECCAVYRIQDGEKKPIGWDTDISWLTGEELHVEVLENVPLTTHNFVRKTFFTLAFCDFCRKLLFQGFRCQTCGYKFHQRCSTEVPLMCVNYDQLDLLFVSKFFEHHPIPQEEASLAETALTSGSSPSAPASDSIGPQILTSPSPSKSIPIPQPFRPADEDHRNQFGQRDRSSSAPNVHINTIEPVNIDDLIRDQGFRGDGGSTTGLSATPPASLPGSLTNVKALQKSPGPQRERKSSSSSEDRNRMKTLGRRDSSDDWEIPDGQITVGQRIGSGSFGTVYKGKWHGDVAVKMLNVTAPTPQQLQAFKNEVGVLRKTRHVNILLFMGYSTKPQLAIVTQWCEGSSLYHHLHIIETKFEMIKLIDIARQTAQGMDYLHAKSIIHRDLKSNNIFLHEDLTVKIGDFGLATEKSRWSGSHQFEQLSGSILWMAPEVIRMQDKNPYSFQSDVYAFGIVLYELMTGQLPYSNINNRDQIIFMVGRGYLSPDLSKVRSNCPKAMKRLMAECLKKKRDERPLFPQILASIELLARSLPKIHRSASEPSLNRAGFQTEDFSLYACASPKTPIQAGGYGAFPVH
Sequence of Platelet-derived growth factor receptor alpha (Homo sapiens) (P16234 whole entry, the tested form may be a part): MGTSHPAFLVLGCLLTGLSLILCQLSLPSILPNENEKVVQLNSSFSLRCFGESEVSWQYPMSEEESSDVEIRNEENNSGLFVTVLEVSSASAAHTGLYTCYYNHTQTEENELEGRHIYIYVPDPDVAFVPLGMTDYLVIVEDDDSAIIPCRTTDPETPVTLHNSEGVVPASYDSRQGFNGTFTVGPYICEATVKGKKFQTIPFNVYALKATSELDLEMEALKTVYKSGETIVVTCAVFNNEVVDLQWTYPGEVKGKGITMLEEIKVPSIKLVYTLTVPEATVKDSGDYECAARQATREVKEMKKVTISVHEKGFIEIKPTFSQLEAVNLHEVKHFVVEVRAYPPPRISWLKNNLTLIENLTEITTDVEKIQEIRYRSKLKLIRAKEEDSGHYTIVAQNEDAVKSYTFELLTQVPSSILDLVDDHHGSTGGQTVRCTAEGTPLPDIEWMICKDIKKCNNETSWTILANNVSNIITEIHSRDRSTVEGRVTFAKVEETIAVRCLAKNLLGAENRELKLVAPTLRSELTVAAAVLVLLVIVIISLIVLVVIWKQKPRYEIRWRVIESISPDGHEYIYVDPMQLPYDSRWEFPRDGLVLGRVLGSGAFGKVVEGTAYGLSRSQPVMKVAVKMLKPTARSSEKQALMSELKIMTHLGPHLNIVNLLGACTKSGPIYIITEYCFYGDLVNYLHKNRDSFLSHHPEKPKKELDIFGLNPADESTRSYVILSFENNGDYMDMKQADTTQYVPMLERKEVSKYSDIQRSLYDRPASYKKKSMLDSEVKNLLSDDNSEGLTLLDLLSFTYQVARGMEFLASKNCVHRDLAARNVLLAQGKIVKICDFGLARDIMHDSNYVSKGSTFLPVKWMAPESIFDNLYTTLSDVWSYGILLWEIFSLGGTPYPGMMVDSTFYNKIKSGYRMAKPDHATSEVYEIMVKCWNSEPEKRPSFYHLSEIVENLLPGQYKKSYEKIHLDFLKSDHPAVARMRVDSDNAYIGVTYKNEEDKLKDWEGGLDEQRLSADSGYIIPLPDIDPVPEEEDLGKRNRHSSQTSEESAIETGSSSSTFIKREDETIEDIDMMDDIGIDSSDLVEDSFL
Sequence of Serine/threonine-protein kinase B-raf (P15056 whole entry): as the sequence (P15056 whole entry V600E, the tested form may be a part) above, with E600V counted along it
Sequence of Tyrosine-protein kinase FRK (Homo sapiens) (P42685 whole entry, the tested form may be a part): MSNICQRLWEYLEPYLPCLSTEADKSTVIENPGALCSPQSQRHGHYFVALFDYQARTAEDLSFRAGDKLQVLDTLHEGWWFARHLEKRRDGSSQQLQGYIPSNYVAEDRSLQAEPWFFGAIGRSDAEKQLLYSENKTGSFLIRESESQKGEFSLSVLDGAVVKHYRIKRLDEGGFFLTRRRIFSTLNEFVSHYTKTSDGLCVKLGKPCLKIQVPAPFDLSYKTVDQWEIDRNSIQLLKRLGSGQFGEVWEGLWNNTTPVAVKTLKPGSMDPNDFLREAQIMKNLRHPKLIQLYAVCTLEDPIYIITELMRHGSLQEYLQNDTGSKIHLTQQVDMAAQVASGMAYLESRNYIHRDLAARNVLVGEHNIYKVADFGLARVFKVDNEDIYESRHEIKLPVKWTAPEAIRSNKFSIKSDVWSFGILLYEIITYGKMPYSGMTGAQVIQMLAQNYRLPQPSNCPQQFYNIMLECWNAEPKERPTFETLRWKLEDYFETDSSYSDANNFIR

**Q.** What does the source list for `Cc1ncc(NC(=O)c2cccc(C(F)(F)F)c2)cc1-c1cnc(OC2CCOCC2)c(N2CCOCC2)c1`?
**A.** Vd [1]: 3.5 L/kg; T/C (Calu-6 [2]): 92%; clearance [3]: 14 mL/min/kg; fraction unbound [4]: 0.02; Activity (PC-3): inactive; EC50 (Calu-6 [5]): 950 nM; Papp B→A [6]: 13 ×10⁻⁶ cm/s; clearance [7]: 35 mL/min/kg; Activity [8]: 96%; Papp A→B [9]: 15 ×10⁻⁶ cm/s; Time (Mus musculus [10]): 24 h; AUC(0-inf) [11]: 1.5 µM·h; Activity (Mus musculus [12]): Non-Toxic; Activity [13]: > 99%; Activity (Calu-6 [14]): 92%; inhibition in vivo at 200 mg/kg (Mus musculus [15]): ≥ 70%; IC50 [16]: 0.4 nM; Cp (Plasma): Bld; fraction unbound [17]: 0.02; Cmax [18]: 800 nM; Activity [19]: 86%; inhibition (Mus musculus [20]): Dose-dependent effect; Activity (Mus musculus [21]): Non-Toxic; AUC(0-inf) [22]: 1 µM·h; remaining at 3 h [23]: 95%; Activity [24]: 92%; T1/2 [25]: > 6.5 h; Cmax [26]: 500 nM; bioavailability [27]: 48%; solubility thermodynamic [28]: 200 µM (≈ 109 µg/mL); inhibition (Mus musculus [29]): inactive; Cmax [30]: 1000 nM
